Data reported in patent publication US20150250786A1, “PYRIMIDINE HYDROXY AMIDE COMPOUNDS AS PROTEIN DEACETYLASE INHIBITORS AND METHODS OF USE THEREOF” (THE TRUSTEES OF THE UNIVERSITY OF PENNSYLVANIA, priority 2012, published 2015).
pIC50: −log10 of the molar value. Where two headings read alike, the source gives them in different places.

Experiments:
[1] = test system: RN46A-B14 serotonergic cell line; experiment: Histone H3K9 acetylation in RN46A-B14 cells (Western blot); type: cell-based, rat; conditions: 2.5 μM, 4 hours
[2] = test system: histone H3 lysine 9 acetylation; experiment: Histone H3K9 acetylation in vivo (Western blot, ChIP); design: species or system mouse; conditions: in vivo treatment
[3] = Body weight gain during chronic treatment; type: in vivo, mouse; conditions: 4 weeks of treatment
[4] = target: HDAC1 (Homo sapiens, UniProt Q13547); experiment: HDAC enzyme assay, HDAC1
[5] = target: HDAC2 (Homo sapiens, UniProt Q92769); experiment: HDAC enzyme assay, HDAC2
[6] = target: HDAC3 (Homo sapiens, UniProt O15379); experiment: HDAC enzyme assay, HDAC3
[7] = target: T1, HDAC6 (Homo sapiens, UniProt Q9UBN7); experiment: HDAC enzyme assay, HDAC6
T1 sequence (Q9UBN7 1-1215): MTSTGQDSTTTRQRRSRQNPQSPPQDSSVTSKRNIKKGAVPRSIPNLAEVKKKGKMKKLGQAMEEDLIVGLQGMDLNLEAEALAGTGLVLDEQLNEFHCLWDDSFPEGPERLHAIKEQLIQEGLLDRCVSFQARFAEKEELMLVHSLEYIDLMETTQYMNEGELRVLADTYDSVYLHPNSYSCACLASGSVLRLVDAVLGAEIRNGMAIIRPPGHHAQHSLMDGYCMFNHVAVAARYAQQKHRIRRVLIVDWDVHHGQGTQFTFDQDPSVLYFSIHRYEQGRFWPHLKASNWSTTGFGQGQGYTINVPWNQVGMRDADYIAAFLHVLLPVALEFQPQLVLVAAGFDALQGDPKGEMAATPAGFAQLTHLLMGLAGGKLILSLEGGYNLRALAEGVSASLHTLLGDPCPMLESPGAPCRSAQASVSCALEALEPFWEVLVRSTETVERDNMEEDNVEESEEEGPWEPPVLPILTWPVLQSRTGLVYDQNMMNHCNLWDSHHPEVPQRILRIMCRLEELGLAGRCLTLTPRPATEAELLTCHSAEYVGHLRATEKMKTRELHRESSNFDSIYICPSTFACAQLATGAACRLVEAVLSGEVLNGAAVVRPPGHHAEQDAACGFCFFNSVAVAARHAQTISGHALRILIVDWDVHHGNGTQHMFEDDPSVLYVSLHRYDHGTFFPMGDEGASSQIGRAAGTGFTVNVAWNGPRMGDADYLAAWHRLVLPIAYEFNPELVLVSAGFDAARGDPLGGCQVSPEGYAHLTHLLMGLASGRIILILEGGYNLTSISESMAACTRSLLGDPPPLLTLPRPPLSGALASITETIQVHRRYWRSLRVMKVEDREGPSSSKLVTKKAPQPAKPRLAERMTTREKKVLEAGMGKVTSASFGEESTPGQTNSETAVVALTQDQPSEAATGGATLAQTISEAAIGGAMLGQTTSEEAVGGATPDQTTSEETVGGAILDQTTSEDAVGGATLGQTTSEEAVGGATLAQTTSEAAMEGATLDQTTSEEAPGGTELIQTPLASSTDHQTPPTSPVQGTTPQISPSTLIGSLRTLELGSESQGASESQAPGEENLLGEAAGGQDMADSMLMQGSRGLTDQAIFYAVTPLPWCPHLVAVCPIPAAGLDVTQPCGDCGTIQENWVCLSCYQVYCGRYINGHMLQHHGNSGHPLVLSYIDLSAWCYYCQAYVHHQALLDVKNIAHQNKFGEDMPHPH

Sequence of HDAC1 (Q13547 whole entry): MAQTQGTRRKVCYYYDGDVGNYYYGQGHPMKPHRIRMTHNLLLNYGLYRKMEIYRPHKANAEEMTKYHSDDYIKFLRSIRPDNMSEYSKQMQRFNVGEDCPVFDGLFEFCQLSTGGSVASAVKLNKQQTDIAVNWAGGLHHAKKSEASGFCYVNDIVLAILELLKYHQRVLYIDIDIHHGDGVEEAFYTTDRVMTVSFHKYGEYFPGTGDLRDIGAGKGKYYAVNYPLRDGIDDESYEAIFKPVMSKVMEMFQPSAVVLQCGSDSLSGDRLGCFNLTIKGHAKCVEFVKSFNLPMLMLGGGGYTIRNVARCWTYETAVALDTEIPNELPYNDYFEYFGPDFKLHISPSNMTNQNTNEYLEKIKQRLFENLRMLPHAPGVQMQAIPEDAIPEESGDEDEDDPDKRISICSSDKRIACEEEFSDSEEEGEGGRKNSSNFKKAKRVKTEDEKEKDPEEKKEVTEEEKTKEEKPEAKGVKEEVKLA
Sequence of HDAC3 (O15379 whole entry): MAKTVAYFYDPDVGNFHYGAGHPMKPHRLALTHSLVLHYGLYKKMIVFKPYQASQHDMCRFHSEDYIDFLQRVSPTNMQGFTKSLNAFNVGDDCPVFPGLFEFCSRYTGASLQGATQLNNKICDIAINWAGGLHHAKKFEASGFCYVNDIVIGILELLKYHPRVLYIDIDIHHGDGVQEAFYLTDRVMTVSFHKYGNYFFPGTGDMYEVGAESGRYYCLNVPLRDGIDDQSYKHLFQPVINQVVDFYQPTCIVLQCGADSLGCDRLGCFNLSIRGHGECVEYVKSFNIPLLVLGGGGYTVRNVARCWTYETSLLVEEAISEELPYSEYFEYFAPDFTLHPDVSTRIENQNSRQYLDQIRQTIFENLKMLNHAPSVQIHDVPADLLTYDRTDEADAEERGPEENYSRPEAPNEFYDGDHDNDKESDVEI
Sequence of HDAC3 (Q9Y618 395-489 partner limits assumed): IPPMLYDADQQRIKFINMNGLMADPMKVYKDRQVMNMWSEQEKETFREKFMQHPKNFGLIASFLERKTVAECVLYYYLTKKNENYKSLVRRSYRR
Sequence of HDAC2 (Q92769 whole entry): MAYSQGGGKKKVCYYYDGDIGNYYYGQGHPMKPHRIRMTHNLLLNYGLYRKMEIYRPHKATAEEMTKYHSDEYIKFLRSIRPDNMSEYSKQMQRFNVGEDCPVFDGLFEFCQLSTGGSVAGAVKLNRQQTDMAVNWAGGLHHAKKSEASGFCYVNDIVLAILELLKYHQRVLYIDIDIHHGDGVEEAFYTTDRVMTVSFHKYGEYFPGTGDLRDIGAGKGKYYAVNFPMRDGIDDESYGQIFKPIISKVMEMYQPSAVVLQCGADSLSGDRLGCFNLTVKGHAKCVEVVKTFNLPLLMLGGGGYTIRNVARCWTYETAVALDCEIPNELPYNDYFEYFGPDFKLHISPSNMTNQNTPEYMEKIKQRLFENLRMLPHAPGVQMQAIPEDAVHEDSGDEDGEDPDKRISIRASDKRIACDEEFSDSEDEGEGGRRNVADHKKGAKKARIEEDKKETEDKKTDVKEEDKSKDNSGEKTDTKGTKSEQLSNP

O=C(NO)c1cnc(NC2(c3cccc(F)c3)CCCCC2)nc1 [Compound 101, 2-((1-(3-fluorophenyl)cyclohexyl)amino)-N-hydroxypyrimidine-5-carboxamide]
change in histone H3K9 acetylation [1]: no significant change | acetylation of histone 3 at lysine 9 in Western blot [2]: did not significantly alter | body weight gain [3]: no significant effect | HDAC1 fold versus HDAC6 (in brackets) ([4]; Table 3): 283 x | HDAC1 fold versus HDAC6 (in brackets) ([4]; selectivity HDAC6 over HDAC1): (283.5x) | HDAC2 fold versus HDAC6 (in brackets) [5]: (343.2x) | HDAC2 fold versus HDAC6 (in brackets) ([5]; Table 3): 342 x | HDAC3 fold versus HDAC6 (in brackets) [6]: (1498.8x) | HDAC3 fold versus HDAC6 (in brackets) ([6]; Table 3): 1496 x | pIC50 [7]: 8.12 | average selectivity over class I HDACs [7]: 700 fold
